Values quoted from earlier work, collected in patent publication US20050118594A1, “Enzymes” (priority 2001, published 2005).

[1] = mild hypertriglyceridemia (e.g., triglycerides <400 mg/dl)

Row | SMILES | decrease in triglyceride levels [1] [%] | increase in HDL cholesterol concentrations [1] | change in LDL cholesterol levels (mild hypertriglyceridemia, particularly in subjects with familial combined hyperlipidemia) | decrease in LDL levels (patients with heterozygous familial hypercholesterolemia) [%] | lowering of VLDL levels (second generation agents, compared with gemfibrozil)
1 | Cc1ccc(C)c(OCCCC(C)(C)C(=O)O)c1 [gemfibrozil] | ≥ 50 | 15-25% | either no change or an increase | 10 | 
2 | CC(C)(Oc1ccc(C2CC2(Cl)Cl)cc1)C(=O)O (centres unmarked) [ciprofibrate] |  |  |  |  | to a degree similar to that produced by gemfibrozil
